According to ChEMBL document CHEMBL1201862, “PubChem BioAssay data set” (2004):
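These data come from cells grown in 96-well plates and exposed to compound for 48 hours at five concentrations. At the GI50, growth is halved.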 Activity calls are given as the source filed them. No stated cut-off is given here; in the data, active = GI50 up to about 1.1 µM and inactive = higher.

Legend:
Test in all cases: DTP human tumour cell line panel, 48 h
A498 = test system: A498
A549 = test system: A549
CAKI-1 = test system: CAKI-1
HCT-116 = test system: HCT-116
HCT-15 = test system: HCT-15
HL-60 = test system: HL-60
HOP-62 = test system: HOP-62
IGROV-1 = test system: IGROV-1
MCF7 = test system: MCF7
NCI-H226 = test system: NCI-H226
NCI-H460 = test system: NCI-H460
RXF 393 = test system: RXF 393
SF-268 = test system: SF-268
SK-MEL-2 = test system: SK-MEL-2
SK-MEL-5 = test system: SK-MEL-5
SNB-19 = test system: SNB-19
SW-620 = test system: SW-620
TK-10 = test system: TK-10
UACC-257 = test system: UACC-257
UACC-62 = test system: UACC-62

CN1C(=O)C(C#N)C2C[C@@]1(C)Oc1ccccc12 (stereo not given in full) was tested, and the GI50 (A498) was > 100 µM (inactive), the GI50 (A549) was > 100 µM (inactive) and the GI50 (CAKI-1) was > 100 µM (inactive). For the same compound, the GI50 (HCT-116) was > 100 µM (inactive), the GI50 (HCT-15) was greater than 100 µM and the GI50 (HL-60) was > 100 µM (inactive). The GI50 (HOP-62) was > 100 µM (inactive), the GI50 (IGROV-1) was > 100 µM (inactive) and the GI50 (MCF7) was > 100 µM (inactive). The GI50 (NCI-H226) was > 100 µM (inactive), the GI50 (NCI-H460) was 91.8 µM (inactive) and the GI50 (RXF 393) was > 100 µM (inactive). The GI50 (SF-268) was > 100 µM (inactive), the GI50 (SK-MEL-2) was > 100 µM (inactive) and the GI50 (SK-MEL-5) was > 100 µM (inactive). For the same compound, the GI50 (SNB-19) was > 100 µM (inactive), the GI50 (SW-620) was > 100 µM (inactive) and the GI50 (TK-10) was > 100 µM (inactive). For the same compound, the GI50 (UACC-257) was > 100 µM (inactive) and the GI50 (UACC-62) was > 100 µM (inactive).
In the case of N#Cc1c(Cl)cc(Cl)n2c1nc1ccccc12, the GI50 (A498) was 22 µM (inactive), the GI50 (A549) was 17.3 µM (inactive) and the GI50 (CAKI-1) was 3.43 µM (inactive). For the same compound, the GI50 (HCT-116) was 4.74 µM (inactive), the GI50 (HCT-15) was 3.43 µM and the GI50 (HL-60) was 1.31 µM (inactive). For the same compound, the GI50 (HOP-62) was 22.9 µM (inactive), the GI50 (IGROV-1) was 8.05 µM (inactive) and the GI50 (MCF7) was 4.66 µM (inactive). The GI50 (NCI-H226) was 13.8 µM (inactive), the GI50 (NCI-H460) was 8 µM (inactive) and the GI50 (RXF 393) was 13.2 µM (inactive). The GI50 (SF-268) was 14.1 µM (inactive), the GI50 (SK-MEL-2) was 17.6 µM (inactive) and the GI50 (SK-MEL-5) was 14.3 µM (inactive). For the same compound, the GI50 (SNB-19) was 22 µM (inactive), the GI50 (SW-620) was 3.15 µM (inactive) and the GI50 (TK-10) was 6.68 µM (inactive). The GI50 (UACC-257) was 10.3 µM (inactive) and the GI50 (UACC-62) was 12.6 µM (inactive).
COc1cc(OC)cc(Oc2nc3cc(F)c(F)cc3nc2-c2ccccc2)c1 was tested, and the GI50 (A498) was > 100 µM (inactive), the GI50 (A549) was > 100 µM (inactive) and the GI50 (CAKI-1) was > 100 µM (inactive). The GI50 (HCT-116) was > 100 µM (inactive), the GI50 (HCT-15) was greater than 100 µM and the GI50 (HL-60) was > 100 µM (inactive). The GI50 (HOP-62) was > 100 µM (inactive), the GI50 (IGROV-1) was > 100 µM (inactive) and the GI50 (MCF7) was > 100 µM (inactive). For the same compound, the GI50 (NCI-H226) was > 100 µM (inactive), the GI50 (NCI-H460) was > 100 µM (inactive) and the GI50 (RXF 393) was > 100 µM (inactive). The GI50 (SF-268) was > 100 µM (inactive), the GI50 (SK-MEL-2) was > 100 µM (inactive) and the GI50 (SK-MEL-5) was > 100 µM (inactive). The GI50 (SNB-19) was > 100 µM (inactive), the GI50 (SW-620) was > 100 µM (inactive) and the GI50 (TK-10) was > 100 µM (inactive). For the same compound, the GI50 (UACC-257) was > 100 µM (inactive) and the GI50 (UACC-62) was > 100 µM (inactive).
